Reference: BigSolDB 2.1

NCCCCCC(=O)O
solubility (mole fraction)
Settings	283.15 K	288.15 K	293.15 K	298.15 K	303.15 K	308.15 K	313.15 K	318.15 K	323.15 K
in ethyl acetate	0.000146	0.00016	0.000174	0.000188	0.0002	0.000221	0.000241	0.000262	0.000289
in isopropanol	7.7e-05	8.1e-05	9.2e-05	0.000108	0.000123	0.000142	0.000162	0.000181	0.0002
in methyl acetate	0.000119	0.000129	0.00014	0.000146	0.000154	0.000161	0.000166	0.00017	0.000172
in water	0.118	0.126	0.13	0.137	0.145	0.152	0.155	0.16	0.167
